This note sets out measurements from patent publication US6500858B2, “Taxoid anti-tumor agents and pharmaceutical compositions thereof” (The Research Foundation of the state University of New York, priority 1994, dated 2002).

As a reminder, the pIC50 is −log10 of the IC50, conventionally taken in molar units. One may read the T/C as the result in the treated group divided by that in the control group, in per cent.

pIC50: −log10 of the molar value. Several values for one entry are separate records, joined by “and”; a condition that tells them apart may be missing. Equal values may be shown once. Read-outs that look alike come from different tables or passages of the source.

Data set [1] has as its system LCC6-WT: human breast carcinoma. The data set can be described thus: cytotoxicity assay of second generation taxoids. The format is cell-based. To be noted: 72 h drug exposure; read-out: LCC6-WT IC50. As to the method:
A cytotoxicity assay of these new second generation taxoids was performed on human breast cancer cell lines, LCC6-WT and LCC-MDR, and selected taxoids were also assayed for their potency against MCF7 and MCF7-R (Skehan, P., et al., J. Nat. Cancer Inst. 1990, 82, 1107-1112).

Data set [2] relates to docetaxel-resistant melanoma, B16/TXT. Description: intravenous administration to B16/TXT melanoma-bearing mice. It counts as in vivo, B6D2F1 female mice. To be noted: days 3, 5, 7. As to the method:
(§1) The efficacy of the test compounds on solid tumors in vivo was determined experimentally according to the following general experimental protocol:
(§2) The mice subjected to the experiment were subcutaneously grafted bilaterally with 30 to 60 mg of a tumor fragment on day zero. Mice bearing tumors were mixed before being subjected to the various treatments and controls. In the case of treatment of advanced tumors, tumors were allowed to develop to the desired size, and mice having insufficiently developed tumors were eliminated. The selected mice were distributed at random to undergo the treatments and controls. Mice not bearing tumors may also be subjected to the same treatments as the tumor-bearing mice in order to be able to dissociate the toxic effect from the specific effect on the tumor. Chemotherapy generally began from 3 to 22 days after grafting, depending on the type of tumor, and the mice were observed every day. The different mice groups were weighed 3 or 4 times a week until the maximum weight loss was attained (nadir), and the groups were then weighed at least once a week until the end of the trial.
(§3) The tumors were measured 2 or 3 times a week until the tumor reached approximately 2 grams, or until the animal died, if this occurred before the tumor reached 2 grams. The mice were autopsied when sacrificed.
(§4) The antitumor activity was determined in accordance with different parameters recorded such as dose (mg/kg), mode of administration, time of administration, cytotoxicity, toxicity and log10 cell kill.
SB-T-1213, SB-T-121303, SB-T-121304 and SB-T-1250 were evaluated in B6D2F1 female mice bearing the docetaxel-resistant melanoma, B16/TXT. The general experimental protocol was as described above. The compounds evaluated were administered intravenously on an intermittent schedule on days 3, 5, and 7 post tumor implantation.

The test system of another data set is B16 melanoma. The data set can be described thus: intravenous administration to mice bearing B16 melanoma. The format is in vivo, B6D2F1 female mice. The arrangement: key to Responses (activity rating): A = active; HA = highly active. As to the method:
as §1, §2, §3, §4
SB-T-1213, SB-T-121303, SB-T-121304 and SB-T-1250 were evaluated in B6D2F1 female mice bearing B16 melanoma. The general experimental protocol was as described above. The compounds evaluated were administered intravenously (iv) on an intermittent schedule on days 3, 5, and 7 post tumor implantation. With the exception of SB-T-1250, solutions of the compounds for administration were prepared in 5% ethanol, 5% polysorbate 80, and 90% glucose 5% water.

A further data set concerns MCF7 (mammary carcinoma). The data set can be described thus: tumor cell growth inhibition (SRB, 72 h drug exposure). The format is cell-based, human. To be noted: read-out: MCF7 IC50. As to the method: (§5) Lower numbers indicate higher potency. […] The data represent the mean values of at least three separate experiments. Lower numbers indicate greater activity.
(§6) Assessment of cell growth inhibition was determined according to the methods of Skehan et al., J. Nat. Cancer Inst. […] Briefly, cells were plated between 400 and 1200 cells/well in 96 well plates and incubated at 37° C. for 15-18 h prior to drug addition to allow attachment of cells. […] After a 72 h incubation, […] of ice-cold 50% TCA was added to each well and incubated for 1 h at 4° C. Plates were then washed 5 times with tap water to remove TCA, low-molecular-weight metabolites and serum proteins. Sulforhodamine B (SRB) (0.4%, […]) was added to each well. Following a 5 min incubation at room temperature, plates were rinsed 5 times with 0.1% acetic acid and air dried. […] Optical density was measured at 570 nm.

The test system of data set [3] is MCF7-R (mammary carcinoma cells 180-fold resistant to adriamycin). Described as above. The format is cell-based, human. As to the method: as §5, §6

As to “3′-Dephenyl-3′-(2-methylprop-1-enyl)-2-debenzoyl-2-(3-methoxybenzoyl)-10-cyclopropyldocetaxel [Taxoid 7m]”, the negative-log IC50 (pIC50) in data set [1] was 9.00.
Turning to `CCC(=O)O[C@H]1C(=O)[C@@]2(C)[C@H]([C@H](OC(=O)c3cccc(OC)c3)[C@]3(O)C[C@H](OC(=O)[C@H](O)[C@H](C=C(C)C)NC(=O)OC(C)(C)C)C(C)=C1C3(C)C)[C@]1(OC(C)=O)CO[C@@H]1C[C@@H]2O` [SB-T-121303], the T/C in data set [2] (0.7 mg/kg/adm.) is recorded as 94%; in the data set on B16 melanoma (1.9 mg/kg/adm., days 3, 5, 7) it was 12%. The “drug related deaths (DD)” value in data set [2] (1.9 mg/kg/adm.) is reported as “⅕”; in data set [2] (3.2 mg/kg/adm.) it was 100%; in the data set with B16 melanoma (3.2 mg/kg/adm., days 3, 5, 7), 100%. Also, the highest nontoxic dose is on record as 1.2 mg/kg/adm in data set [2] and 1.9 mg/kg/adm in the data set with B16 melanoma (days 3, 5, 7). Moreover, the “Responses (activity rating)” value with B16 melanoma (1.9 mg/kg/adm.) was “A”. Also, the log10 cell kill with B16 melanoma (1.9 mg/kg/adm., days 3, 5, 7) is listed as 1.7. Moreover, the “% body weight loss at nadir” value in the data set with B16 melanoma (1.9 mg/kg/adm., days 3, 5, 7, 1.9 mg/kg) is 16.9% and 16.9 (13) %.
For the compound `CCC(=O)OC1C(=O)C2(C)C(O)CC3OCC3(OC(C)=O)C2C(OC(=O)c2cccc(F)c2)C2(O)CC(OC(=O)C(O)C(CC(C)C)NC(=O)OC(C)(C)C)C(C)=C1C2(C)C` (stereo not drawn) [Taxoid 7a, 3′-Dephenyl-3′-(2-methylpropyl)-2-debenzoyl-2-(3-fluorobenzoyl)-10-propanoyldocetaxel], in data set [1], the pIC50 was 9.40.
`CCC(=O)OC1C(=O)C2(C)C(O)CC3OCC3(OC(C)=O)C2C(OC(=O)c2cccc(F)c2)C2(O)CC(OC(=O)C(O)C(C=C(C)C)NC(=O)OC(C)(C)C)C(C)=C1C2(C)C` (stereo not drawn) [Taxoid 7b, 3′-Dephenyl-3′-(2-methylprop-1-enyl)-2-debenzoyl-2-(3-fluorobenzoyl)-10-propanoyldocetaxel]: in data set [1], the pIC50 is 9.30.
In the case of `CCC(=O)OC1C(=O)C2(C)C(O)CC3OCC3(OC(C)=O)C2C(OC(=O)c2cccc(Cl)c2)C2(O)CC(OC(=O)C(O)C(C=C(C)C)NC(=O)OC(C)(C)C)C(C)=C1C2(C)C` (stereo not drawn) [Taxoid 7d, 3′-Dephenyl-3′-(2-methylprop-1-enyl)-2-debenzoyl-2-(3-chlorobenzoyl)-10-propanoyldocetaxel], the pIC50 in data set [1] was 9.10.
Take `CCC(=O)OC1C(=O)C2(C)C(O)CC3OCC3(OC(C)=O)C2C(OC(=O)c2cccc(OC)c2)C2(O)CC(OC(=O)C(O)C(NC(=O)OC(C)(C)C)C(F)F)C(C)=C1C2(C)C` (stereo not drawn) [Taxoid 7g, 3′-Dephenyl-3′-difluoromethyl-2-debenzoyl-2-(3-methoxybenzoyl)-10-propanoyldocetaxel]: the pIC50 is 9.40 in the data set on MCF7 (mammary carcinoma) (72 h drug exposure, Table 3); 8.37 in data set [3] (72 h drug exposure, Table 3); 8.82 in data set [1].
The like results for `C=CCCC(NC(=O)OC(C)(C)C)C(O)C(=O)OC1CC2(O)C(OC(=O)c3cccc(OC)c3)C3C4(OC(C)=O)COC4CC(O)C3(C)C(=O)C(OC(=O)CC)C(=C1C)C2(C)C` (stereo not drawn) [Taxoid 7h, 3′-Dephenyl-3′-(3-butenyl)-2-debenzoyl-2-(3-methoxybenzoyl)-10-propanoyldocetaxel] were, in that order, 8.70, 8.11 and 9.05.
In the case of `C=CCC(NC(=O)OC(C)(C)C)C(O)C(=O)OC1CC2(O)C(OC(=O)c3cccc(OC)c3)C3C4(OC(C)=O)COC4CC(O)C3(C)C(=O)C(OC(=O)CC)C(=C1C)C2(C)C` (stereo not drawn) [Taxoid 7i, 3′-Dephenyl-3′-(2-propenyl)-2-debenzoyl-2-(3-methoxybenzoyl)-10-propanoyldocetaxel], the pIC50 was 9.10 with MCF7 (mammary carcinoma) (72 h drug exposure, Table 3); 8.06 in data set [3] (72 h drug exposure, Table 3); 8.92 in data set [1].
As to `C/C=C/C(NC(=O)OC(C)(C)C)C(O)C(=O)OC1CC2(O)C(OC(=O)c3cccc(OC)c3)C3C4(OC(C)=O)COC4CC(O)C3(C)C(=O)C(OC(=O)CC)C(=C1C)C2(C)C` (stereo not drawn) [Taxoid 7k, 3′-Dephenyl-3′-[(E)-prop-1-enyl]-2-debenzoyl-2-(3-methoxybenzoyl)-10-propanoyldocetaxel], the pIC50 in data set [1] is 8.92.
Take `C=Cc1cccc(C(=O)OC2C3C4(OC(C)=O)COC4CC(O)C3(C)C(=O)C(OC(=O)CC)C3=C(C)C(OC(=O)C(O)C(C=C(C)C)NC(=O)OC(C)(C)C)CC2(O)C3(C)C)c1` (stereo not drawn) [Taxoid 7p, 3′-Dephenyl-3′-(2-methylprop-1-enyl)-2-debenzoyl-2-(3-ethenylbenzoyl)-10-propanoyldocetaxel]: the negative-log IC50 (pIC50) in data set [1] was 8.54.
Turning to `CCC(=O)OC1C(=O)C2(C)C(O)CC3OCC3(OC(C)=O)C2C(OC(=O)c2ccccc2)C2(O)CC(OC(=O)C(O)C(CC(C)C)NC(=O)OC(C)(C)C)C(C)=C1C2(C)C` (stereo not drawn) [Taxoid Ib′, 3′-dephenyl-3′-(2-methylpropyl)-10-propanoyldocetaxel], the pIC50 in the data set on MCF7 (mammary carcinoma) (Table 2) was 9.46; in data set [3] (Table 2), 8.55.
As for `CC(=O)OC12COC1CC(O)C1(C)C(=O)C(OC(=O)C3CC3)C3=C(C)C(OC(=O)C(O)C(C=C(C)C)NC(=O)OC(C)(C)C)CC(O)(C(OC(=O)c4ccccc4)C21)C3(C)C` (stereo not drawn) [Taxoid Ic, 3′-Dephenyl-3′-(2-methyl-1-propenyl)-10-cyclopropanecarbonyldocetaxel], the negative logarithm of the IC50 (pIC50) was 9.70 in the data set on MCF7 (mammary carcinoma) (Table 2) and 8.68 in data set [3] (Table 2). The “times better activity than paclitaxel and docetaxel against drug-resistant human breast cells” value in data set [3] (MCF7-R) is 142 times.
Regarding `CC(=O)OC12COC1CC(O)C1(C)C(=O)C(OC(=O)C3CC3)C3=C(C)C(OC(=O)C(O)C(CC(C)C)NC(=O)OC(C)(C)C)CC(O)(C(OC(=O)c4ccccc4)C21)C3(C)C` (stereo not drawn) [Taxoid Ic′, 3′-Dephenyl-3′-(2-methylpropyl)-10-cyclopropanecarbonyldocetaxel], the pIC50 in the data set with MCF7 (mammary carcinoma) (Table 2) was 9.29; in data set [3] (Table 2), 8.36.
Turning to `CC=CC(=O)OC1C(=O)C2(C)C(O)CC3OCC3(OC(C)=O)C2C(OC(=O)c2ccccc2)C2(O)CC(OC(=O)C(O)C(C=C(C)C)NC(=O)OC(C)(C)C)C(C)=C1C2(C)C` (stereo not drawn) [Taxoid Id, 3′-Dephenyl-3′-(2-methyl-1-propenyl)-10-crotonoyldocetaxel], the pIC50 with MCF7 (mammary carcinoma) (Table 2) is 9.59; in data set [3] (Table 2), 8.47.
The like results for `CC(=O)OC12COC1CC(O)C1(C)C(=O)C(OC(=O)N(C)C)C3=C(C)C(OC(=O)C(O)C(C=C(C)C)NC(=O)OC(C)(C)C)CC(O)(C(OC(=O)c4ccccc4)C21)C3(C)C` (stereo not drawn) [Taxoid Ie, 3′-Dephenyl-3′-(2-methyl-1-propenyl)-O-N,N-dimethylcarbamoyldocetaxel] were, in that order, 9.89 and 8.31.
With `CC(=O)OC12COC1CC(O)C1(C)C(=O)C(OC(=O)N(C)C)C3=C(C)C(OC(=O)C(O)C(CC(C)C)NC(=O)OC(C)(C)C)CC(O)(C(OC(=O)c4ccccc4)C21)C3(C)C` (stereo not drawn) [Taxoid Ie′, 3′-Dephenyl-3′-(2-methylpropyl)-10-N,N-dimethylcarbamoyldocetaxel], the pIC50 is 9.44 in the data set with MCF7 (mammary carcinoma) (Table 2) and 8.24 in data set [3] (Table 2).
In the case of `COC(=O)OC1C(=O)C2(C)C(O)CC3OCC3(OC(C)=O)C2C(OC(=O)c2ccccc2)C2(O)CC(OC(=O)C(O)C(C=C(C)C)NC(=O)OC(C)(C)C)C(C)=C1C2(C)C` (stereo not drawn) [Taxoid If, 3′-Dephenyl-3′-(2-methyl-1-propenyl)-10-methoxycarbonyldocetaxel], the pIC50 with MCF7 (mammary carcinoma) (Table 2) was 9.85; in data set [3] (Table 2), 8.28.
Take `COC(=O)OC1C(=O)C2(C)C(O)CC3OCC3(OC(C)=O)C2C(OC(=O)c2ccccc2)C2(O)CC(OC(=O)C(O)C(CC(C)C)NC(=O)OC(C)(C)C)C(C)=C1C2(C)C` (stereo not drawn) [Taxoid If′, 3′-Dephenyl-3′-(2-methylpropyl)-10-methoxycarbonyldocetaxel]: the negative logarithm of the IC50 (pIC50) in the data set on MCF7 (mammary carcinoma) (Table 2) was 9.32; in data set [3] (Table 2) it was 8.20.
